Experimental data taken from patent US11884671B2, “Purinone compounds and their use in treating cancer” (ASTRAZENECA AB, priority 2018, dated 2024).

Legend:
DNAPK = DNAPK (Homo sapiens (Human), UniProt P78527); assay: DNAPK cellular potency assay (DNA-PK cell), pS2056-DNAPK ELISA in irradiated A549 cells; type: cell-based; conditions: 8 Gy radiation, arithmetic mean of two or more experiments, read-out: DNA-PK cell pIC50 (converted)
Experimental: The DNAPK cell ELISA assay was performed in the A549 cell line. A549 cells were cultured in cell media composed of MEM-F12 (Minimum Essential Medium F12 Sigma #D6421), 10% (v/v) Foetal Calf Serum and 1% (v/v) 200 mM L-Glutamine. […] The following day the Greiner ELISA plates were washed 3× with PBS-T and blocked with 3% BSA/PBS for 2 h, before a further 3× wash with PBS-T.
The cell plates were then incubated for 1 h at 37° C. before receiving a radiation dose of 8 Gy (XRAD 320, table height 65). The cells were incubated for a further 1 h before removal of cell media. […] Cell lysates ([…]) were transferred to the DNAPK antibody-coated ELISA plates using a CyBio Felix liquid handling platform, and ELISA plates were incubated at 4° C. overnight.
The following day, ELISA plates were washed 3× with PBS-T and dispensed with in-house pS2056-DNAPK antibody (0.5 μg/mL in 3% BSA/PBS) at 20 ul/well.
The fluorescence intensity of individual wells was determined using a PerkinElmer EnVision plate reader.
Data was analysed and IC50 values were calculated using Genedata Screener® software (Genedata, Inc., Basel, Switzerland).

JAK2 = JAK2 (Homo sapiens (Human), UniProt O60674); assay: JAK2 enzyme assay (Z'-LYTE); type: biochemical; conditions: 25 μM ATP, arithmetic mean of two or more experiments; for IC50: read-out: JAK2 enz pIC50 (converted)
Sequence of JAK2 (O60674 whole entry): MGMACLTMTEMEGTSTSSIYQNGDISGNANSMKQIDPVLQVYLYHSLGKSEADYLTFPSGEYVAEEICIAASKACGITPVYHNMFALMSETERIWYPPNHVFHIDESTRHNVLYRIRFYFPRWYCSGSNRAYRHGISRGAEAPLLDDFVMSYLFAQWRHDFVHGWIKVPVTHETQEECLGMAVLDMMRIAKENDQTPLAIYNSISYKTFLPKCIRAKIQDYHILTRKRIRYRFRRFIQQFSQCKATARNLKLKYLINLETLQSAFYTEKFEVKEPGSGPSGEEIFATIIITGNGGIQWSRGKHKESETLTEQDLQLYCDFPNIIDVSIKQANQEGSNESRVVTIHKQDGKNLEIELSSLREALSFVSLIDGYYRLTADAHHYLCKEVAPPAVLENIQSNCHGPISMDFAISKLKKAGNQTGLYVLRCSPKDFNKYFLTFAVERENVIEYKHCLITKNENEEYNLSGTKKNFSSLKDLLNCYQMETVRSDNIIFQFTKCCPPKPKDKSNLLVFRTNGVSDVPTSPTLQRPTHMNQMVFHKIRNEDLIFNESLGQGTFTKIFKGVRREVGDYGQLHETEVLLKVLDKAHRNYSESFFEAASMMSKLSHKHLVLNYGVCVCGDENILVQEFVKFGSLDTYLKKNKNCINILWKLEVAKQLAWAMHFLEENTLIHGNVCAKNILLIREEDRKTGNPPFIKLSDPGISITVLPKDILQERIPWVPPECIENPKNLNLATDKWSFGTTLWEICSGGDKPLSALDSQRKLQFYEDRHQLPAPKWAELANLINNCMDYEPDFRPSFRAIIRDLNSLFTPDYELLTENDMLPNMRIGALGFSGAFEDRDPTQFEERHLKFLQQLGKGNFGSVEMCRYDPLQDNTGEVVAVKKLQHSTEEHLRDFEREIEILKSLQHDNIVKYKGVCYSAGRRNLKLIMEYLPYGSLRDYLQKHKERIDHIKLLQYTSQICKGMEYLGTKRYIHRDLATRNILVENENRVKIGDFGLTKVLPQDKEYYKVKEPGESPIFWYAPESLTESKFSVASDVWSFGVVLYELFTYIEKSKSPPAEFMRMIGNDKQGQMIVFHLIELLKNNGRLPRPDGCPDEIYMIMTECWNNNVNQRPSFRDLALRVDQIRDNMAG
Experimental: (§1) The inhibitory activity of compounds against AURKA, AURKB, JAK1, JAK2 and JAK3 was determined in Z′-LYTE® assays run by ThermoFisher Scientific as part of their SelectScreen® Biochemical Kinase Profiling Service. The Z′-LYTE® biochemical assay format employs a fluorescence-based, coupled-enzyme format and is based on the differential sensitivity of phosphorylated and non-phosphorylated peptides to proteolytic cleavage. The peptide substrate is labeled with two fluorophores—one at each end—that make up a FRET pair. In the primary reaction, the kinase transfers the gamma-phosphate of ATP to a single tyrosine, serine or threonine residue in a synthetic FRET-peptide. In the secondary reaction, a site-specific protease recognises and cleaves non-phosphorylated FRET-peptides. Phosphorylation of FRET-peptides suppresses cleavage by the Development Reagent. Cleavage disrupts FRET between the donor (i.e., coumarin) and acceptor (i.e., fluorescein) fluorophores on the FRET-peptide, whereas uncleaved, phosphorylated FRET-peptides maintain FRET. A ratiometric method, which calculates the ratio (the Emission Ratio) of donor emission to acceptor emission after excitation of the donor fluorophore at 400 nm, is used to quantitate reaction progress. Both cleaved and uncleaved FRET-peptides contribute to the fluorescence signals and therefore to the Emission Ratio. The extent of phosphorylation of the FRET-peptide can be calculated from the Emission Ratio.
(§2) 10 point three-fold dilution compound concentration-response curves, with a top concentration of 10 μM were generated from 10 mM stocks of compound solubilised in DMSO. All assays were performed in black, non-binding, low volume Corning 384-well plates (cat. #4514, Corning), in a total reaction volume of 10 μL and 1% (v/v) final DMSO concentration. […] The kinase reaction was then quenched by the addition of 5 μL of Development Reagent (ThermoFisher Scientific proprietary). […] IC50 values were calculated using XLfit software (IDBS Ltd, Surrey, UK), with the curve fit to model number 205 (sigmoidal dose-response model).
JAK2: The 2×JAK2/Tyr 06 (ThermoFisher Scientific proprietary) mixture was prepared in 50 mM HEPES pH 7.5, 0.01% BRIJ-35, 10 mM MgCl2, 1 mM EGTA. […] After the 1 hour Kinase Reaction incubation, 5 μL of a 1:128 dilution of Development Reagent was added.

JAK3 = JAK3 (Homo sapiens (Human), UniProt P52333); assay: JAK3 enzyme assay (Z'-LYTE); type: biochemical; conditions: 10 μM ATP, arithmetic mean of two or more experiments; for IC50: read-out: JAK3 enz pIC50 (converted)
Sequence of JAK3 (P52333 whole entry): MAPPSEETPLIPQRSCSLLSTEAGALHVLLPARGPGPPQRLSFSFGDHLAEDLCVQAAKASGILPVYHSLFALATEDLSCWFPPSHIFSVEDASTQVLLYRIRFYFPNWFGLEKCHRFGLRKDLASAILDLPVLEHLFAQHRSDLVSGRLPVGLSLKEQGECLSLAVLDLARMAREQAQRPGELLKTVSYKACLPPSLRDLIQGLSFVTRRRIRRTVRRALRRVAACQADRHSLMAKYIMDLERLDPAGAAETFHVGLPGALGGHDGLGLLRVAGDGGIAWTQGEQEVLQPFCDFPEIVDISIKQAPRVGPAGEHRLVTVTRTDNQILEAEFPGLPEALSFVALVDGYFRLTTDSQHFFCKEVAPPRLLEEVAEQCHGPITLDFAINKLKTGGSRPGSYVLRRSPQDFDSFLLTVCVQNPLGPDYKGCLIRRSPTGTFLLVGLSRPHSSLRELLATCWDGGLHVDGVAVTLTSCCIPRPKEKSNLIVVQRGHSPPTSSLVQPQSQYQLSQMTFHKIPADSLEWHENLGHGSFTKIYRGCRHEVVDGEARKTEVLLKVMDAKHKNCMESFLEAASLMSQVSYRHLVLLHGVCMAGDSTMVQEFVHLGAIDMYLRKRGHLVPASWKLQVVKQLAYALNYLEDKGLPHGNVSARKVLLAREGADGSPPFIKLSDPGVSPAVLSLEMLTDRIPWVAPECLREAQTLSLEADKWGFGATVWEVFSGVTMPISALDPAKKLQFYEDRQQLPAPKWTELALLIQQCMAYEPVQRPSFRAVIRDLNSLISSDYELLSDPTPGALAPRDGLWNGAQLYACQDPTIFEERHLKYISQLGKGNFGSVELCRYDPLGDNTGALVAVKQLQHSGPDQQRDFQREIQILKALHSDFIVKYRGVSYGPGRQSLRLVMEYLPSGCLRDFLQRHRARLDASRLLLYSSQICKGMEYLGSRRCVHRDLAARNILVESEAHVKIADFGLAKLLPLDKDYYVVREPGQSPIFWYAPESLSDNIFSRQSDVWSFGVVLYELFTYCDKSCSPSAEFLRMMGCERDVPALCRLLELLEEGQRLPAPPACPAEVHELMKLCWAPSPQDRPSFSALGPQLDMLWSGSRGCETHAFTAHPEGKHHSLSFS
Experimental: as §1, §2
JAK3: The 2×JAK3/Tyr 06 (ThermoFisher Scientific proprietary) mixture was prepared in 50 mM HEPES pH 7.5. 0.01% BRIJ-35, 10 mM MgCl2, 1 mM EGTA. […] After the 1 hour Kinase Reaction incubation, 5 μL of a 1:128 dilution of Development Reagent was added.

AURKA (Aurora A) = AURKA (Aurora A) (Homo sapiens (Human), UniProt O14965); assay: Aurora-A enzyme assay (Z'-LYTE); type: biochemical; conditions: 10 μM ATP, arithmetic mean of two or more experiments; for IC50: read-out: AurA enz pIC50 (converted)
Sequence of AURKA (Aurora A) (O14965 whole entry): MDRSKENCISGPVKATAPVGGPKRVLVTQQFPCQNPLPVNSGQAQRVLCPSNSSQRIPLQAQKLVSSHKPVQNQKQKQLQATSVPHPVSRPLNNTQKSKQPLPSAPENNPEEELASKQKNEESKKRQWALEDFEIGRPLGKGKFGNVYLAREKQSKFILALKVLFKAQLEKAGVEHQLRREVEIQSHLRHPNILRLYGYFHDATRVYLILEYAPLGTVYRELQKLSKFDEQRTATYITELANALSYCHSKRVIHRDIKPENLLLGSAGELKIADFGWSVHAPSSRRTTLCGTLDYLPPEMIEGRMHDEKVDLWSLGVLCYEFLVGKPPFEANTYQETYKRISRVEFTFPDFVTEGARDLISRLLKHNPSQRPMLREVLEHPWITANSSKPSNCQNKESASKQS
Experimental: as §1, §2
Aurora A (AurA): The 2×AURKA (Aurora A)/Ser/Thr 01 (ThermoFisher Scientific proprietary) mixture was prepared in 50 mM HEPES pH 7.5, 0.01% BRIJ-35, 10 mM MgCl2, 1 mM EGTA. […] After the 1 hour Kinase Reaction incubation, 5 μL of a 1:4096 dilution of Development Reagent was added.

AURKB (Aurora B) = AURKB (Aurora B) (Homo sapiens (Human), UniProt Q96GD4); assay: Aurora-B enzyme assay (Z'-LYTE); type: biochemical; conditions: 75 μM ATP, arithmetic mean of two or more experiments; for IC50: read-out: AurB enz pIC50 (converted)
Sequence of AURKB (Aurora B) (Q96GD4 whole entry): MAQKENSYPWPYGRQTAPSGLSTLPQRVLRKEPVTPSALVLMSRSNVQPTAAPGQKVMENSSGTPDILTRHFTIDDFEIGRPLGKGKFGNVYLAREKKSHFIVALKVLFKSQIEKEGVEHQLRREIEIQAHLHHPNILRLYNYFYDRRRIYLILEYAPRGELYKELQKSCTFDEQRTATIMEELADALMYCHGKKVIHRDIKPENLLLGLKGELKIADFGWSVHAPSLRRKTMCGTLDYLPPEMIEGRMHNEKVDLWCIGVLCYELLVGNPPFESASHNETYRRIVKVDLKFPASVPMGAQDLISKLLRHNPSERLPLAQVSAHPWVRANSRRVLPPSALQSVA
Experimental: as §1, §2
Aurora B (AurB): The 2×AURKB (Aurora B)/Ser/Thr 01 (ThermoFisher Scientific proprietary) mixture was prepared in 50 mM HEPES pH 7.5, 0.01% BRIJ-35, 10 mM MgCl2, 1 mM EGTA. […] After the 1 hour Kinase Reaction incubation, 5 μL of a 1:4096 dilution of Development Reagent was added.

CC(=O)N1CCC(n2c(=O)n(C)c3cnc(Nc4cc5ccnnc5cc4C)nc32)CC1 [Example 1, 9-(1-acetylpiperidin-4-yl)-7-methyl-2-((7-methylcinnolin-6-yl)amino)-7,9-dihydro-8H-purin-8-one]
IC50 (DNAPK): 200 nM
JAK2 enz pIC50 (JAK2): <5.2
JAK3 enz pIC50 (JAK3): <5
AurA enz pIC50 (AURKA (Aurora A)): <5
AurB enz pIC50 (AURKB (Aurora B)): <5

CC(=O)N1CCC(n2c(=O)n(C)c3cnc(Nc4cc5cccnc5cc4C)nc32)CC1 [Example 51, 9-(1-acetylpiperidin-4-yl)-7-methyl-2-((7-methylquinolin-6-yl)amino)-7,9-dihydro-8H-purin-8-one]
IC50 (DNAPK): 12.6 nM
JAK2 enz pIC50 (JAK2): <5
JAK3 enz pIC50 (JAK3): <5
AurA enz pIC50 (AURKA (Aurora A)): <5
AurB enz pIC50 (AURKB (Aurora B)): <5

Cc1cc2nccnc2cc1Nc1ncc2c(n1)n([C@H]1CCOC1)c(=O)n2C [Example 22, (S)-7-methyl-2-((7-methylquinoxalin-6-yl)amino)-9-(tetrahydrofuran-3-yl)-7,9-dihydro-8H-purin-8-one]
IC50 (DNAPK): 25.1 nM
JAK2 enz pIC50 (JAK2): <5
JAK3 enz pIC50 (JAK3): <5
AurA enz pIC50 (AURKA (Aurora A)): <5
AurB enz pIC50 (AURKB (Aurora B)): <5

CC(=O)N1CCC(n2c(=O)n(C)c3cnc(Nc4cc5ncc(C)nc5cc4C)nc32)CC1 [Example 4, 9-(1-acetylpiperidin-4-yl)-2-((2,7-dimethylquinoxalin-6-yl)amino)-7-methyl-7,9-dihydro-8H-purin-8-one]
IC50 (DNAPK): 251 nM
JAK2 enz pIC50 (JAK2): <5
JAK3 enz pIC50 (JAK3): <5
AurA enz pIC50 (AURKA (Aurora A)): <5
AurB enz pIC50 (AURKB (Aurora B)): <5

Cc1cc2ncccc2cc1Nc1ncc2c(n1)n(C1COC1)c(=O)n2C [Example 36, 7-methyl-2-((7-methylquinolin-6-yl)amino)-9-(oxetan-3-yl)-7,9-dihydro-8H-purin-8-one]
IC50 (DNAPK): 31.6 nM
JAK2 enz pIC50 (JAK2): <5.1
JAK3 enz pIC50 (JAK3): <5
AurA enz pIC50 (AURKA (Aurora A)): <5
AurB enz pIC50 (AURKB (Aurora B)): <5

Cc1cc2ncccc2cc1Nc1ncc2c(n1)n([C@@H]1CCN(C)C[C@@H]1F)c(=O)n2C [Example 46, 9-((3S,4R)-3-fluoro-1-methylpiperidin-4-yl)-7-methyl-2-((7-methylquinolin-6-yl)amino)-7,9-dihydro-8H-purin-8-one]
IC50 (DNAPK): 631 nM
JAK2 enz pIC50 (JAK2): <5
JAK3 enz pIC50 (JAK3): <5
AurA enz pIC50 (AURKA (Aurora A)): <5
AurB enz pIC50 (AURKB (Aurora B)): <5

Cc1cc2nccnc2cc1Nc1ncc2c(n1)n([C@H]1CC[C@H](O)CC1)c(=O)n2C [Example 10, 9-((1r,4r)-4-hydroxycyclohexyl)-7-methyl-2-((7-methylquinoxalin-6-yl)amino)-7,9-dihydro-8H-purin-8-one]
IC50 (DNAPK): 10 nM
IC50 (JAK2): > 10000 nM
IC50 (JAK3): > 10000 nM
IC50 (AURKA (Aurora A)): > 10000 nM
IC50 (AURKB (Aurora B)): > 10000 nM

Cc1cc2nccnc2cc1Nc1ncc2c(n1)n([C@H]1CC[C@@](C)(O)CC1)c(=O)n2C [Example 19, 9-((1s,4s)-4-hydroxy-4-methylcyclohexyl)-7-methyl-2-((7-methylquinoxalin-6-yl)amino)-7,9-dihydro-8H-purin-8-one]
IC50 (DNAPK): 25.1 nM
IC50 (JAK2): > 10000 nM
IC50 (JAK3): > 10000 nM
IC50 (AURKA (Aurora A)): > 10000 nM
IC50 (AURKB (Aurora B)): > 10000 nM

Cc1cc2nccc(C)c2cc1Nc1ncc2c(n1)n([C@H]1CC[C@H](O)CC1)c(=O)n2C [Example 8, 2-((4,7-dimethylquinolin-6-yl)amino)-9-((1r,4r)-4-hydroxycyclohexyl)-7-methyl-7,9-dihydro-8H-purin-8-one]
IC50 (DNAPK): 10 nM
IC50 (JAK2): > 10000 nM
IC50 (JAK3): > 10000 nM
IC50 (AURKA (Aurora A)): > 10000 nM
IC50 (AURKB (Aurora B)): > 10000 nM

Cc1cc2nccnc2cc1Nc1ncc2c(n1)n([C@@H]1CCCOC1)c(=O)n2C [Example 26, (R)-7-methyl-2-((7-methylquinoxalin-6-yl)amino)-9-(tetrahydro-2H-pyran-3-yl)-7,9-dihydro-8H-purin-8-one]
IC50 (DNAPK): 39.8 nM
JAK2 enz pIC50 (JAK2): <5
JAK3 enz pIC50 (JAK3): <5
AurA enz pIC50 (AURKA (Aurora A)): <5
AurB enz pIC50 (AURKB (Aurora B)): <5

Cc1cc2nccnc2cc1Nc1ncc2c(n1)n([C@H]1CCCOC1)c(=O)n2C [Example 28, (S)-7-methyl-2-((7-methylquinoxalin-6-yl)amino)-9-(tetrahydro-2H-pyran-3-yl)-7,9-dihydro-8H-purin-8-one]
IC50 (DNAPK): 15.8 nM
JAK2 enz pIC50 (JAK2): <5
JAK3 enz pIC50 (JAK3): <5
AurA enz pIC50 (AURKA (Aurora A)): 5.3
AurB enz pIC50 (AURKB (Aurora B)): <5

Cc1cc2ncccc2cc1Nc1ncc2c(n1)n(C1CCN(CCO)CC1)c(=O)n2C [Example 48, 9-(1-(2-hydroxyethyl)piperidin-4-yl)-7-methyl-2-((7-methylquinolin-6-yl)amino)-7,9-dihydro-8H-purin-8-one]
IC50 (DNAPK): 316 nM
JAK2 enz pIC50 (JAK2): <5
JAK3 enz pIC50 (JAK3): <5
AurA enz pIC50 (AURKA (Aurora A)): <5
AurB enz pIC50 (AURKB (Aurora B)): <5

Cc1cc2ncccc2cc1Nc1ncc2c(n1)n(C1CCS(=O)(=O)CC1)c(=O)n2C [Example 35, 9-(1,1-dioxidotetrahydro-2H-thiopyran-4-yl)-7-methyl-2-((7-methylquinolin-6-yl)amino)-7,9-dihydro-8H-purin-8-one]
IC50 (DNAPK): 39.8 nM
JAK2 enz pIC50 (JAK2): <5
JAK3 enz pIC50 (JAK3): 5.2
AurA enz pIC50 (AURKA (Aurora A)): <5
AurB enz pIC50 (AURKB (Aurora B)): <5

Cc1cc2nccnc2cc1Nc1ncc2c(n1)n([C@H]1CC[C@@H](O)CC1)c(=O)n2C [Example 13, 9-((1s,4s)-4-hydroxycyclohexyl)-7-methyl-2-((7-methylquinoxalin-6-yl)amino)-7,9-dihydro-8H-purin-8-one]
IC50 (DNAPK): 15.8 nM
IC50 (JAK2): > 10000 nM
IC50 (JAK3): > 10000 nM
IC50 (AURKA (Aurora A)): > 10000 nM
IC50 (AURKB (Aurora B)): > 10000 nM

Cc1cc2ncccc2cc1Nc1ncc2c(n1)n([C@H]1CC[C@@](C)(N)CC1)c(=O)n2C [Example 39, 9-((1s,4s)-4-amino-4-methylcyclohexyl)-7-methyl-2-((7-methylquinolin-6-yl)amino)-7,9-dihydro-8H-purin-8-one]
IC50 (DNAPK): 79.4 nM
IC50 (JAK2): > 10000 nM
IC50 (JAK3): > 10000 nM
IC50 (AURKA (Aurora A)): > 10000 nM
IC50 (AURKB (Aurora B)): > 10000 nM
